Experimental findings from US20240059698A1 (Accutar Biotechnology Inc., priority 2022, published 2024) are described below.

What all share (format): cell-based
For one assay, the system named is HCC827 cells. In words: Cell growth inhibition (CellTiter-Glo), HCC827. The note with it: Homo sapiens, 72 h, 3 days. The method, boiled down:
(§1)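 Readout was CellTiter-Glo luminescence after 3-day compound treatment at 37° C. Cells were seeded at 5000/well the previous night: HCC827 in RPMI/10% FBS, A431 in DMEM/10% FBS.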

Assay [1] has as its system HCC827-SVD cells (human EGFR exon 20 insertion mutant D770_N771insSVD). Description: Cell growth inhibition (CellTiter-Glo), HCC827-SVD. The following applies: 72 h, 3 days. The method, boiled down:
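Growth read by CellTiter-Glo luminescence after 3-day compound exposure at 37 °C. Engineered clonal HCC827 line (native EGFR deleted by CRISPR, mutant EGFR re-expressed) plated at 5000 cells/well in 10% FBS RPMI the night before dosing.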

Assay [2] relates to HCC827-ASV cells (human EGFR exon 20 insertion mutant V769_D770insASV). Description: Cell growth inhibition (CellTiter-Glo), HCC827-ASV. The following applies: 72 h, HCC827-ASV cells, 3 days, CellTiter-Glo, read-out: Cell growth inhibition, GI50 (nM) HCC827-ASV. Here is the method: Generation of HCC827-SVD, HCC827-ASV, and HCC827-YVMA cell lines. The HCC827-SVD cell line was generated by first transducing HCC827 cells (ATCC) with lentiviral particles expressing codon-optimized human EGFR exon 20 insertion mutant D770_N771insSVD, and then selecting under 5 µg/mL puromycin treatment for a week. The resulting cells were further transduced with lentiviral particles carrying EGFR sgRNA and CAS9 to knockout the endogenous alleles of EGER and then selected under 500 µg/mL hygromycin B treatment for two weeks. The limiting dilution approach was used to subsequently generate the single clone of the HCC827-SVD stable cell line. Endogenous EGFR knockout was confirmed by Sanger sequencing of cell genomic DNA, and expression of exogenous mutant EGFR was verified by Western blot analysis.
HCC827-ASV and HCC827-YVMA cell lines were generated in a similar approach as HCC827-SVD, except that HCC827 cells (ATCC) were first transduced with lentiviral particles expressing codon-optimized human EGFR exon 20 insertion mutant V769_D770insASV and human ERBB2 exon20 insertion mutant A775_G776ins YVMA, respectively.
2. Cell Growth Inhibition for HCC827, HCC827-SVD, HCC827-ASV, HCC827-YVMA, and A431.
HCC827(ATCC), HCC827-SVD, HCC827-ASV, and HCC827-YVMA cells were seeded in 96-well plates at 5000 cells/well in 90 μL of RPMI growth medium containing 10% FBS and 1% Penicillin Streptomycin. A431 (ATCC) cells were seeded in 96-well plates at 5000 cells/well in 90 μL of DMEM growth medium containing 10% FBS and 1% Penicillin Streptomycin. Cells were incubated at 37° C. overnight and then administered with 10 μL 10× test compounds prepared in the growth medium at various concentrations. After administration of the compounds, cells were incubated at 37° C. for 3 days. Before the CellTiter-Glo assay, the plates were equilibrated at room temperature for approximately 30 minutes. 100 ul of CellTiter-Glo reagent (Promega) was added to each well. The plates were then incubated at room temperature for 10 minutes and luminescence was recorded by the EnSight® multimode plate reader (PerkinElmer). Table 7 listed selected compounds in cellular growth assay.

Assay [3] relates to HCC827-YVMA cells (human ERBB2 exon20 insertion mutant A775_G776ins YVMA). Description: Cell growth inhibition (CellTiter-Glo), HCC827-YVMA. The following applies: 72 h, HCC827-YVMA cells, 3 days, CellTiter-Glo, read-out: Cell growth inhibition, GI50 (nM) HCC827-YVMA. The procedure, abridged:
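Growth in RPMI with 10% FBS was measured by CellTiter-Glo luminescence after 3 days at 37 °C with test compounds across a concentration range. The single-clone HCC827 lines carry a lentiviral YVMA (ERBB2) or ASV (EGFR) exon 20 insertion, with endogenous EGFR removed via sgRNA/Cas9.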

In another assay the test system is A431 cells. Description: Cell growth inhibition (CellTiter-Glo), A431. The following applies: Homo sapiens, A-431, 72 h, 3 days. The procedure, abridged: as §1

For `C=CC(=O)N1CCC(c2c[nH]c3ncnc(Nc4ccc(Oc5ccnc(NC(=O)C6CCCC6)c5)cc4F)c23)CC1` [Compound 90, N-(4-(4-((5-(1-acryloylpiperidin-4-yl)-7H-pyrrolo[2,3-d]pyrimidin-4-yl)amino)-3-fluorophenoxy)pyridin-2-yl)cyclopentanecarboxamide], the GI50 with HCC827 cells was 50 to 200 nM; in assay [1], 50 to 200 nM; in assay [2], less than 50 nM; in assay [3], less than 50 nM; in the assay on A431 cells it was 200 to 1000 nM.

Turning to `C=CC(=O)N1CCC(c2c[nH]c3ncnc(Nc4ccc(Oc5ccnc(Nc6ccccn6)c5)cc4F)c23)CC1` [Compound 135, 1-(4-(4-((2-fluoro-4-((2-(pyridin-2-ylamino)pyridin-4-yl)oxy)phenyl)amino)-7H-pyrrolo[2,3-d]pyrimidin-5-yl)piperidin-1-yl)prop-2-en-1-one], the GI50 is more than 1000 nM with HCC827 cells; less than 50 nM in assay [1]; less than 50 nM in assay [2]; less than 50 nM in assay [3]; 200 to 1000 nM in the assay with A431 cells.

For the compound `C=CC(=O)N1CCC(c2c[nH]c3ncnc(Nc4ccc(Oc5ccnc(-n6ccc(OC)n6)c5)cc4F)c23)CC1` [Compound 136, 1-(4-(4-((2-fluoro-4-((2-(3-methoxy-1H-pyrazol-1-yl)pyridin-4-yl)oxy)phenyl)amino)-7H-pyrrolo[2,3-d]pyrimidin-5-yl)piperidin-1-yl)prop-2-en-1-one], the GI50 in the assay on HCC827 cells was 200 to 1000 nM; in assay [1] it was 50 to 200 nM; in assay [2] it was less than 50 nM; in assay [3], less than 50 nM; with A431 cells, more than 1000 nM.

Consider `C=CC(=O)N1CCC(c2c[nH]c3ncnc(Nc4ccc(Oc5ccnc(N6CC(O)(C(F)(F)F)C6)c5)cc4F)c23)CC1` [Compound 144, 1-(4-(4-((2-fluoro-4-((2-(3-hydroxy-3-(trifluoromethyl)azetidin-1-yl)pyridin-4-yl)oxy)phenyl)amino)-7H-pyrrolo[2,3-d]pyrimidin-5-yl)piperidin-1-yl)prop-2-en-1-one], for which the GI50 was 50 to 200 nM in the assay on HCC827 cells; more than 1000 nM in assay [1]; less than 50 nM in assay [2]; less than 50 nM in assay [3]; more than 1000 nM with A431 cells.

As for `C=CC(=O)N1CCC(c2c[nH]c3ncnc(Nc4ccc(Oc5ccnc(N6CCN(C)CC6)c5)cc4F)c23)CC1` [Compound 152, 1-(4-(4-((2-fluoro-4-((2-(4-methylpiperazin-1-yl)pyridin-4-yl)oxy)phenyl)amino)-7H-pyrrolo[2,3-d]pyrimidin-5-yl)piperidin-1-yl)prop-2-en-1-one], the GI50 was more than 1000 nM in the assay on HCC827 cells; 200 to 1000 nM in assay [1]; 200 to 1000 nM in assay [2]; 200 to 1000 nM in assay [3]; more than 1000 nM with A431 cells.

For the compound `C=CC(=O)N1CC=C(c2c[nH]c3ncnc(Nc4ccc(OCc5ccccn5)c(Cl)c4)c23)CC1` [Compound 154, 1-(4-(4-((3-chloro-4-(pyridin-2-ylmethoxy)phenyl)amino)-7H-pyrrolo[2,3-d]pyrimidin-5-yl)-3,6-dihydropyridin-1(2H)-yl)prop-2-en-1-one], the GI50 in the assay on HCC827 cells was less than 50 nM; in assay [1], less than 50 nM; in assay [2], less than 50 nM; in assay [3], less than 50 nM; with A431 cells, 200 to 1000 nM.

For the compound `C=CC(=O)N1CCC(c2c[nH]c3ncnc(Nc4ccc(Oc5ccnc(N6C[C@@H](C)O[C@@H](C)C6)c5)cc4F)c23)CC1` [Compound 155, 1-(4-(4-((4-((2-((2S,6R)-2,6-dimethylmorpholino)pyridin-4-yl)oxy)-2-fluorophenyl)amino)-7H-pyrrolo[2,3-d]pyrimidin-5-yl)piperidin-1-yl)prop-2-en-1-one], the concentration for 50% growth inhibition (GI50) in the assay on HCC827 cells is more than 1000 nM; in assay [1], 50 to 200 nM; in assay [2], 200 to 1000 nM; in assay [3] it was 50 to 200 nM; with A431 cells, more than 1000 nM.

Consider `C=CC(=O)N1CCC(c2c[nH]c3ncnc(Nc4ccc(OCc5ccccn5)c(Cl)c4)c23)CC1` [Compound 156, 1-(4-(4-((3-chloro-4-(pyridin-2-ylmethoxy)phenyl)amino)-7H-pyrrolo[2,3-d]pyrimidin-5-yl)piperidin-1-yl)prop-2-en-1-one], for which the GI50 (in the assay with HCC827 cells; in assay [1]; in assay [2]; in assay [3]; with A431 cells) was less than 50 nM in each case.

On to `C=CC(=O)N1CCC(c2c[nH]c3ncnc(Nc4ccc(Oc5ccn(Cc6cc(C)ccn6)n5)cc4F)c23)CC1` [Compound 157, 1-(4-(4-((2-fluoro-4-((1-((4-methylpyridin-2-yl)methyl)-1H-pyrazol-3-yl)oxy)phenyl)amino)-7H-pyrrolo[2,3-d]pyrimidin-5-yl)piperidin-1-yl)prop-2-en-1-one], for which the GI50 in the assay on HCC827 cells was 200 to 1000 nM; in assay [1], 50 to 200 nM; in assay [2], 50 to 200 nM; in assay [3], 50 to 200 nM; in the assay with A431 cells it was more than 1000 nM.

Regarding `C=CC(=O)N1CCC(c2csc3ncnc(Nc4ccc(Oc5ccn(Cc6cc(C)ccn6)n5)cc4F)c23)CC1` [Compound 158, 1-(4-(4-((2-fluoro-4-((1-((4-methylpyridin-2-yl)methyl)-1H-pyrazol-3-yl)oxy)phenyl)amino)thieno[2,3-d]pyrimidin-5-yl)piperidin-1-yl)prop-2-en-1-one], the GI50 was more than 1000 nM with HCC827 cells; more than 1000 nM in assay [1]; 200 to 1000 nM in assay [2]; 50 to 200 nM in assay [3]; more than 1000 nM in the assay with A431 cells.

Take `C=CC(=O)N1CCC(c2csc3ncnc(Nc4ccc(Oc5ccnc(N6C[C@@H](C)O[C@@H](C)C6)c5)cc4F)c23)CC1` [Compound 159, 1-(4-(4-((4-((2-((2R,6S)-2,6-dimethylmorpholino)pyridin-4-yl)oxy)-2-fluorophenyl)amino)thieno[2,3-d]pyrimidin-5-yl)piperidin-1-yl)prop-2-en-1-one]: the GI50 with HCC827 cells was more than 1000 nM; in assay [1] it was 200 to 1000 nM; in assay [2], 200 to 1000 nM; in assay [3], 200 to 1000 nM; with A431 cells, more than 1000 nM.

In the case of `C=CC(=O)N1CCC(c2csc3ncnc(Nc4ccc(OCc5ccccn5)c(Cl)c4)c23)CC1` [Compound 160, 1-[4-[4-[3-chloro-4-(2-pyridylmethoxy)anilino]thieno[2,3-d]pyrimidin-5-yl]-1-piperidyl]prop-2-en-1-one], the GI50 (in the assay with HCC827 cells; in assay [1]; in assay [2]; in assay [3]; with A431 cells) was less than 50 nM throughout.

For `C=CC(=O)N1CCC(c2n[nH]c3ncnc(Nc4ccc(Oc5ccn(Cc6cc(C)ccn6)n5)cc4F)c23)CC1` [Compound 164, 1-(4-(4-((2-fluoro-4-((1-((4-methylpyridin-2-yl)methyl)-1H-pyrazol-3-yl)oxy)phenyl)amino)-1H-pyrazolo[3,4-d]pyrimidin-3-yl)piperidin-1-yl)prop-2-en-1-one], the GI50 in the assay on HCC827 cells is 200 to 1000 nM; in assay [1], 200 to 1000 nM; in assay [2], 200 to 1000 nM; in assay [3], 50 to 200 nM; with A431 cells it was 200 to 1000 nM.

For `C=CC(=O)N1CCC(c2n[nH]c3ncnc(Nc4ccc(OCc5ccccn5)c(Cl)c4)c23)CC1` [Compound 166, 1-(4-(4-((3-chloro-4-(pyridin-2-ylmethoxy)phenyl)amino)-1H-pyrazolo[3,4-d]pyrimidin-3-yl)piperidin-1-yl)prop-2-en-1-one], the GI50 (in the assay on HCC827 cells; in assay [1]; in assay [2]; in assay [3]; in the assay on A431 cells) was less than 50 nM in each case.
